# Source: ChEMBL document CHEMBL3132795, “Synthesis, functional and binding profile of (R)-apomorphine based homobivalent ligands targeting the dopamine D2 receptor” (Medchemcomm, 2013)
# Biological target: T1, D(2) dopamine receptor (Homo sapiens, UniProt P14416)
# Experiment: Agonist activity at human recombinant dopamine D2L receptor expressed in CHOFlpIn cells assessed as ERK1/2 phosphorylation by alphascreen assay
# Type: cell-based
# T1 sequence (P14416 whole entry): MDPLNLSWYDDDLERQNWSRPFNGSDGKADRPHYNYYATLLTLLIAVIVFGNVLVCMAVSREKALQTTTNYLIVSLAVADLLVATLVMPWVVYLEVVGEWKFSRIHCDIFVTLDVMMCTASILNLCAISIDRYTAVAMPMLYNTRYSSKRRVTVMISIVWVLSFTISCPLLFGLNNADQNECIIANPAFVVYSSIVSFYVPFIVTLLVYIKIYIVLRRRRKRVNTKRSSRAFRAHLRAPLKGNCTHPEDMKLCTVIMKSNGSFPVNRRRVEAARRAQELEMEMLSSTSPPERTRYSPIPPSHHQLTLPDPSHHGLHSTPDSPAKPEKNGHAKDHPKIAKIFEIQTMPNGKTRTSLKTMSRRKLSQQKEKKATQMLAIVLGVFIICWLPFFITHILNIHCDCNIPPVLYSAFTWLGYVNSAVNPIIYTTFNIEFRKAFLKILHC
row,EC50,Structure (SMILES)
1,0.01 µM,CN1CCc2cccc3c2[C@H]1Cc1ccc(OCCCN)c(O)c1-3
2,0.132 µM,CC(=O)NCCCOc1ccc2c(c1O)-c1cccc3c1[C@@H](C2)N(C)CC3
3,0.396 µM,CN1CCc2cccc3c2[C@H]1Cc1ccc(OCCCNC(=O)CCC(=O)NCCCOc2ccc4c(c2O)-c2cccc5c2[C@@H](C4)N(C)CC5)c(O)c1-3
4,0.149 µM,CN1CCc2cccc3c2[C@H]1Cc1ccc(OCCCNC(=O)CCCCC(=O)NCCCOc2ccc4c(c2O)-c2cccc5c2[C@@H](C4)N(C)CC5)c(O)c1-3
5,0.419 µM,CN1CCc2cccc3c2[C@H]1Cc1ccc(OCCCNC(=O)CCCCCCC(=O)NCCCOc2ccc4c(c2O)-c2cccc5c2[C@@H](C4)N(C)CC5)c(O)c1-3
6,0.079 µM,CN1CCc2cccc3c2[C@H]1Cc1ccc(OCCCNC(=O)CCCCCCCCC(=O)NCCCOc2ccc4c(c2O)-c2cccc5c2[C@@H](C4)N(C)CC5)c(O)c1-3
7,0.11 µM,CN1CCc2cccc3c2[C@H]1Cc1ccc(OCCCNC(=O)CCCCCCCCCCC(=O)NCCCOc2ccc4c(c2O)-c2cccc5c2[C@@H](C4)N(C)CC5)c(O)c1-3
8,0.224 µM,CN1CCc2cccc3c2[C@H]1Cc1ccc(OCCCNC(=O)CCCCCCCCCCCCC(=O)NCCCOc2ccc4c(c2O)-c2cccc5c2[C@@H](C4)N(C)CC5)c(O)c1-3
9,0.385 µM,CN1CCc2cccc3c2[C@H]1Cc1ccc(OCCCNC(=O)CCCCCCCCCCCCCCCCC(=O)NCCCOc2ccc4c(c2O)-c2cccc5c2[C@@H](C4)N(C)CC5)c(O)c1-3
10,0.248 µM,CN1CCc2cccc3c2[C@H]1Cc1ccc(OCCCNC(=O)CCCCCCCCCCCCCCCCCCC(=O)NCCCOc2ccc4c(c2O)-c2cccc5c2[C@@H](C4)N(C)CC5)c(O)c1-3

row,Structure (SMILES),EC50
1,CN1CCc2cccc3c2[C@H]1Cc1ccc(OCCCNC(=O)CCCCCNC(=O)OC(C)(C)C)c(O)c1-3,0.266 µM

# Biological target: T1, D(2) dopamine receptor
# Experiment: Displacement of [3H]spiperone from human recombinant dopamine D2L receptor expressed in CHOFlpIn cells after 3 hrs by liquid scintillation counting
# Type: cell-based
row,IC50,Structure (SMILES)
1,4.36 µM,CN1CCc2cccc3c2[C@H]1Cc1ccc(OCCCNC(=O)CCC(=O)NCCCOc2ccc4c(c2O)-c2cccc5c2[C@@H](C4)N(C)CC5)c(O)c1-3
2,5.32 µM,CN1CCc2cccc3c2[C@H]1Cc1ccc(OCCCNC(=O)CCCCC(=O)NCCCOc2ccc4c(c2O)-c2cccc5c2[C@@H](C4)N(C)CC5)c(O)c1-3
3,3.6 µM,CN1CCc2cccc3c2[C@H]1Cc1ccc(OCCCNC(=O)CCCCCCC(=O)NCCCOc2ccc4c(c2O)-c2cccc5c2[C@@H](C4)N(C)CC5)c(O)c1-3
4,1.35 µM,CN1CCc2cccc3c2[C@H]1Cc1ccc(OCCCNC(=O)CCCCCCCCC(=O)NCCCOc2ccc4c(c2O)-c2cccc5c2[C@@H](C4)N(C)CC5)c(O)c1-3
5,0.183 µM,CN1CCc2cccc3c2[C@H]1Cc1ccc(OCCCNC(=O)CCCCCCCCCCC(=O)NCCCOc2ccc4c(c2O)-c2cccc5c2[C@@H](C4)N(C)CC5)c(O)c1-3
6,2.68 µM,CN1CCc2cccc3c2[C@H]1Cc1ccc(OCCCNC(=O)CCCCCCCCCCCCCCCCC(=O)NCCCOc2ccc4c(c2O)-c2cccc5c2[C@@H](C4)N(C)CC5)c(O)c1-3
7,1.55 µM,CN1CCc2cccc3c2[C@H]1Cc1ccc(OCCCNC(=O)CCCCCCCCCCCCCCCCCCC(=O)NCCCOc2ccc4c(c2O)-c2cccc5c2[C@@H](C4)N(C)CC5)c(O)c1-3

row,Structure (SMILES),IC50
1,CN1CCc2cccc3c2[C@H]1Cc1ccc(OCCCNC(=O)CCCCCNC(=O)OC(C)(C)C)c(O)c1-3,6.54 µM
